Columns and labels:
[1] = more active than irinotecan itself; cited from earlier work
[2] = system: U-937 (lymphoma) cells; experiment: U-937 (lymphoma) cell death, PAC-1 with second agent; assay type: cell-based; details: 0-15 μM PAC-1, 0 nM second agent, 8 hours, FIG. 4
Description: FIG. 2. Effects of PAC-1 with Etoposide on U-937 (lymphoma) cell death. Dashed lines represent the level of purely additive effects.
FIG. 3. Effects of PAC-1 with Velcade® (bortezomib) on U-937 (lymphoma) cell death. […] Cell death was measured after 6 hours in bortezomib.
FIG. 4. Effects of PAC-1 with staurosporine on U-937 (lymphoma) cell death. […] Cell death was measured after 8 hours in staurosporine.

[3] = in mammals; cited from earlier work

For `CCc1c2c(nc3ccc(O)cc13)-c1cc3c(c(=O)n1C2)COC(=O)[C@]3(O)CC` [SN-38], the “activity relative to irinotecan” value [1] is listed as 200 times.

For `C=CCc1cccc(/C=N/NC(=O)CN2CCN(Cc3ccccc3)CC2)c1O` [PAC-1, 2-(4-benzylpiperazin-1-yl)-N-[(2-hydroxy-3-prop-2-enyl-phenyl)methylideneamino]acetamide], the “cell death with PAC-1 alone” value [2] is listed as “Little or no cell death” and the safety [3] is listed as “safe”.

Source: patent publication US11833147B2, “Procaspase 3 activation by combination therapy” (The Board of Trustees of the University of Illinois, priority 2012, dated 2023)
